Measured values from patent US20260184663A1, “INDENE COMPOUNDS, PHARMACEUTICAL COMPOSITIONS THEREOF, AND THEIR THERAPEUTIC APPLICATIONS” (NucMito Pharmaceuticals co. Ltd., priority 2022, published 2026).

Legend:
Type in all cases: cell-based
[1] = test system: alpha-smooth muscle actin (α-SMA); assay: Inhibition of TGF-β induced expression of alpha-smooth muscle actin (α-SMA) in CFSC cells (western blot); conditions: compound at 10 μM, TGF-β (10 ng/mL), 24 hours, band intensity vs TGF-β only
Outline: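 Values are percent reduction of α-SMA band intensity relative to cells given TGF-β alone, quantified by Western blot densitometry with β-actin probed. Compound was applied at 10 μM alongside 10 ng/mL TGF-β to serum-free CFSC cultures for 24 h at 37 °C.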

[2] = test system: MDA-MB-231 (breast cancer); assay: Antiproliferative activity (CCK-8 cell viability), MDA-MB-231; conditions: Homo sapiens, 72 h, read-out: Antiproliferative activity in cancerous cells, MDA-MB-231 (inhibition of cell growth); for inhibition at 3.3 µM: Compound concentration: 3.3 μM; for inhibition at 10 µM: Compound concentration: 10 μM; for inhibition at 30 µM: Compound concentration: 30 μM
Outline: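 Growth inhibition of human MDA-MB-231 breast cancer cells was assessed with a Cell Counting Kit-8. Cells cultured in DMEM plus 10% FBS were seeded at 2,000-5,000 cells/well, treated after attachment, and kept 72 h at 37° C. CCK-8 solution (10 μL) was added for 4 h, and absorbance at 450 nm was compared with DMSO-treated controls.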

[3] = test system: HepG2 (liver cancer); assay: Antiproliferative activity (CCK-8 cell viability), HepG2; conditions: Homo sapiens, 72 h, read-out: Antiproliferative activity in cancerous cells, HepG2 (inhibition of cell growth); for inhibition at 3.3 µM: Compound concentration: 3.3 μM; for inhibition at 10 µM: Compound concentration: 10 μM; for inhibition at 30 µM: Compound concentration: 30 μM
Outline: (§1)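 Growth inhibition graded in bands from percent viability against DMSO vehicle, read as CCK-8 absorbance at 450 nm. Compound tested at 3.3, 10 or 30 μM for 72 h, 37 °C; media contained 10% FBS: DMEM for HepG2/SW480, MEM for HeLa, F-12K for A549.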

[4] = test system: SW480 (colon cancer); assay: Antiproliferative activity (CCK-8 cell viability), SW480; conditions: Homo sapiens, 72 h, read-out: Antiproliferative activity in cancerous cells, SW480 (inhibition of cell growth); for inhibition at 3.3 µM: Compound concentration: 3.3 μM; for inhibition at 10 µM: Compound concentration: 10 μM; for inhibition at 30 µM: Compound concentration: 30 μM
Outline: as §1

[5] = test system: B16F10 (malignant melanoma); assay: Antiproliferative activity (CCK-8 cell viability), B16F10; conditions: Mus musculus, 72 h, read-out: Antiproliferative activity in cancerous cells, B16F10 (inhibition of cell growth); for inhibition at 3.3 µM: B16-F10, Compound concentration: 3.3 μM; for inhibition at 10 µM: B16-F10, Compound concentration: 10 μM; for inhibition at 30 µM: B16-F10, Compound concentration: 30 μM
Outline: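 Cell growth inhibition was measured in B16F10 malignant melanoma cells with a Cell Counting Kit-8 viability assay. Cells were maintained in DMEM plus 10% fetal bovine serum, seeded at 2,000-5,000 cells/well in 96-well plates, and treated for 72 h at 37° C. Viability was expressed relative to DMSO-treated vehicle control wells.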

[6] = test system: A431 (epidermoid carcinoma); assay: Antiproliferative activity (CCK-8 cell viability), A431; conditions: Homo sapiens, 72 h, read-out: Antiproliferative activity in cancerous cells, A431 (inhibition of cell growth); for inhibition at 3.3 µM: A-431, Compound concentration: 3.3 μM; for inhibition at 10 µM: A-431, Compound concentration: 10 μM; for inhibition at 30 µM: A-431, Compound concentration: 30 μM
Outline: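 This growth inhibition assay used A431 cells maintained in Dulbecco's modified Eagle's medium plus 10% fetal bovine serum. Cells were seeded in 96-well plates, treated with compound for 72 h at 37° C., and then given 10 μL CCK-8 solution. After a further 4 h, absorbance was read at 450 nm.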

[7] = test system: A549 (lung adenocarcinoma); assay: Antiproliferative activity (CCK-8 cell viability), A549; conditions: Homo sapiens, 72 h, read-out: Antiproliferative activity in cancerous cells, A549 (inhibition of cell growth); for inhibition at 3.3 µM: Compound concentration: 3.3 μM; for inhibition at 10 µM: Compound concentration: 10 μM; for inhibition at 30 µM: Compound concentration: 30 μM
Outline: as §1

[8] = test system: HeLa (cervical cancer); assay: Antiproliferative activity (CCK-8 cell viability), HeLa; conditions: Homo sapiens, 72 h, read-out: Antiproliferative activity in cancerous cells, HELA (inhibition of cell growth); for inhibition at 3.3 µM: Compound concentration: 3.3 μM; for inhibition at 10 µM: Compound concentration: 10 μM; for inhibition at 30 µM: Compound concentration: 30 μM
Outline: as §1

SMILES	inhibition at 10 µM [1] [%]	inhibition at 3.3 µM [2] [%]	inhibition at 10 µM [2] [%]	inhibition at 30 µM [2] [%]	inhibition at 3.3 µM [3] [%]	inhibition at 10 µM [3] [%]	inhibition at 30 µM [3] [%]	inhibition at 3.3 µM [4] [%]	inhibition at 10 µM [4] [%]	inhibition at 30 µM [4] [%]	inhibition at 3.3 µM [5] [%]	inhibition at 10 µM [5] [%]	inhibition at 30 µM [5] [%]	inhibition at 3.3 µM [6] [%]	inhibition at 10 µM [6] [%]	inhibition at 30 µM [6] [%]	inhibition at 3.3 µM [7] [%]	inhibition at 10 µM [7] [%]	inhibition at 30 µM [7] [%]	inhibition at 3.3 µM [8] [%]	other results
CC1=C(CC(=O)O)c2cc(F)cc(F)c2/C1=C/c1cccc(COc2ccccc2)c1 [E7, (E)-2-(5,7-Difluoro-2-methyl-1-(3-(phenoxymethyl)benzylidene)-1H-inden-3-yl)-acetic acid]	> 80	< 30	≥ 50	≥ 50	30 to 50	≥ 50	≥ 50	≥ 50	≥ 50	≥ 50	< 30	< 30	≥ 50	30 to 50	≥ 50	≥ 50	≥ 50	≥ 50	≥ 50	≥ 50	inhibition at 10 µM [8]: ≥ 50%; inhibition at 30 µM [8]: ≥ 50%
CC1=C(CCC(=O)O)c2ccccc2/C1=C/c1cccc(Oc2ccccc2)c1 [E10, (E)-3-(2-Methyl-1-(3-phenoxybenzylidene)-1H-inden-3-yl)propanoic acid]	< 30	< 30	< 30	≥ 50	< 30	< 30	< 30	< 30	< 30	30 to 50	< 30	< 30	30 to 50	< 30	< 30	< 30	< 30	30 to 50	≥ 50	< 30	inhibition at 10 µM [8]: < 30%; inhibition at 30 µM [8]: < 30%
CC1=C(CC(=O)O)c2c(F)ccc(F)c2/C1=C/c1ccc(C(C)C)cc1 [E12, (E)-2-(4,7-Difluoro-1-(4-isopropylbenzylidene)-2-methyl-1H-inden-3-yl)acetic acid]	< 30	≥ 50	≥ 50	≥ 50	< 30	< 30	30 to 50	< 30	30 to 50	≥ 50	30 to 50	≥ 50	≥ 50	< 30	30 to 50	≥ 50	< 30	30 to 50	≥ 50	< 30	inhibition at 10 µM [8]: 30 to 50%; inhibition at 30 µM [8]: ≥ 50%
CC1=C(CC(=O)O)c2c(F)ccc(F)c2/C1=C/c1cccc(C(F)(F)F)c1 [E13, (E)-2-(4,7-Difluoro-2-methyl-1-(3-(trifluoromethyl)benzylidene)-1H-inden-3-yl)-acetic acid]	< 30	< 30	< 30	< 30	< 30	< 30	< 30	< 30	< 30	< 30	< 30	≥ 50	≥ 50	< 30	30 to 50	≥ 50	< 30	≥ 50	≥ 50	30 to 50	inhibition at 10 µM [8]: 30 to 50%; inhibition at 30 µM [8]: ≥ 50%
C/C(=C1/C=C(CC(=O)O)c2ccccc21)c1ccc(F)cc1 [E14, (E)-2-(1-(1-(4-Fluorophenyl)ethylidene)-1H-inden-3-yl)acetic acid]	< 30	30 to 50	30 to 50	30 to 50	< 30	< 30	< 30	< 30	< 30	30 to 50	< 30	< 30	30 to 50	< 30	< 30	< 30	< 30	< 30	30 to 50	30 to 50	inhibition at 10 µM [8]: 30 to 50%; inhibition at 30 µM [8]: ≥ 50%
CC1=C(CC(=O)O)c2c(F)ccc(F)c2/C1=C/c1ccc(C(F)(F)F)cc1 [E15, (E)-2-(4,7-Difluoro-2-methyl-1-(4-(trifluoromethyl)benzylidene)-1H-inden-3-yl)-acetic acid]	< 30	≥ 50	≥ 50	≥ 50	< 30	< 30	< 30	< 30	< 30	< 30	< 30	< 30	≥ 50	< 30	< 30	≥ 50	< 30	< 30	≥ 50	< 30	inhibition at 10 µM [8]: 30 to 50%; inhibition at 30 µM [8]: ≥ 50%
CC1=C(CC(=O)O)c2cc(F)ccc2/C1=C/c1cccc(Oc2cccc(C(F)(F)F)c2)c1 [E16, (E)-2-(5-Fluoro-2-methyl-1-(3-(3-(trifluoromethyl)phenoxy)benzylidene)-1H-inden-3-yl)acetic acid]	> 80	30 to 50	30 to 50	≥ 50	< 30	30 to 50	≥ 50	< 30	< 30	≥ 50	< 30	< 30	≥ 50	< 30	< 30	≥ 50	30 to 50	30 to 50	≥ 50	≥ 50	inhibition at 10 µM [8]: ≥ 50%; inhibition at 30 µM [8]: ≥ 50%
